Results taken from the supplement of paper PMC10307832.

Key:
Test in all cases: relative viability (nuclei count vs DMSO), 5 days (fraction); higher = more cells survive
[1] = compound: CC1=CN2C(=O)C=C(N=C2C(=C1)C(C)NC3=CC=CC=C3)N4CCOCC4 [TGX 221] + Cc1nc(Nc2ncc(C(=O)Nc3c(C)cccc3Cl)s2)cc(N2CCN(CCO)CC2)n1 [Dasatinib] (partner 0.075 µM)
Outline: (§1)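 Relative viability equals treated-well nuclei counts divided by vehicle-well nuclei counts. Counts came from 4× images of lung cancer cell lines grown in 1536-well plates for 5 days after pin-tool dosing on the day after seeding. Dosing used one drug alone or a fixed anchor-drug dose plus five library-drug doses (not always all listed) in √10 steps, and values are medians of duplicate plates.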

[2] = compound: C1=CC=C(C(=C1)C2=CC=C(C=C2)C3=CSC4=C3C(=C(C(=O)N4)C#N)O)O + Nc1ncn([C@H]2C[C@H](O)[C@@H](CO)O2)c(=O)n1 [Decitabine] (partner 2 µM)
Outline: as §1

[3] = compound: O=C(CCCCCCNC(=O)c1cnc(N(c2ccccc2)c2ccccc2)nc1)NO [Ricolinostat] + CC(C)C[C@H](NC(=O)[C@H](Cc1ccccc1)NC(=O)c1cnccn1)B(O)O [Bortezomib] (partner 0.002 µM)
Outline: as §1

[4] = compound: O=C(CCCCCCNC(=O)c1cnc(N(c2ccccc2)c2ccccc2)nc1)NO [Ricolinostat] + CC(=O)Nc1cccc(-n2c(=O)n(C3CC3)c(=O)c3c(Nc4ccc(I)cc4F)n(C)c(=O)c(C)c32)c1 [Trametinib] (partner 0.02 µM)
Outline: as §1

Cell Line | relative viability ([1]; first compound 0.08 µM) | relative viability ([1]; first compound 0.253 µM) | relative viability ([1]; first compound 0.8 µM) | relative viability ([1]; first compound 2.53 µM) | relative viability ([1]; first compound 8 µM) | relative viability ([2]; first compound 0.08 µM) | relative viability ([2]; first compound 0.253 µM) | relative viability ([2]; first compound 0.8 µM) | relative viability ([2]; first compound 2.53 µM) | relative viability ([2]; first compound 8 µM) | relative viability ([3]; first compound 0.253 µM) | relative viability ([3]; first compound 0.8 µM) | relative viability ([3]; first compound 2.53 µM) | relative viability ([4]; first compound 0.08 µM) | relative viability ([4]; first compound 0.253 µM) | relative viability ([4]; first compound 0.8 µM) | relative viability ([4]; first compound 2.53 µM) | relative viability ([3]; first compound 0.08 µM)
NCI-H322M | 0.231 | 0.242 | 0.244 | 0.247 | 0.224 | 0.679 | 0.667 | 0.747 | 0.69 | 0.731 | 1.14 | 1.29 | 1.22 | 0.431 | 0.539 | 0.611 | 0.564 | 
NCI-H441 | 0.534 | 0.597 | 0.59 | 0.609 | 0.661 | 0.28 | 0.3 | 0.286 | 0.242 | 0.233 | 0.341 | 0.342 | 0.25 | 0.259 | 0.521 | 0.629 | 0.697 | 0.596
NCI-H460 | 0.478 | 0.477 | 0.526 | 0.539 | 0.432 | 0.387 | 0.437 | 0.531 | 0.5 | 0.398 | 1.01 | 1.11 | 1 | 0.114 | 0.169 | 0.184 | 0.0996 | 0.895
NCI-H520 | 0.215 | 0.202 | 0.156 | 0.16 | 0.159 | 0.476 | 0.476 | 0.559 | 0.509 | 0.462 | 0.609 | 0.414 | 0.103 |  | 0.735 | 0.621 | 0.613 | 
NCI-H596 | 0.593 | 0.531 | 0.585 | 0.522 | 0.563 | 1.02 | 1.79 | 1.09 | 0.898 | 0.891 | 1.09 | 1.13 |  | 0.818 | 0.751 | 0.785 | 0.904 | 0.896
NCI-H647 | 0.189 | 0.145 | 0.15 | 0.163 | 0.136 |  | 0.532 | 0.407 | 0.439 | 0.279 | 1.06 | 0.948 | 0.421 | 0.372 | 0.464 | 0.51 | 0.564 | 0.877
NCI-H650 | 0.44 | 0.402 | 0.424 | 0.393 | 0.429 | 0.297 | 0.333 | 0.307 | 0.312 | 0.315 | 0.788 | 0.544 | 0.23 | 0.853 | 0.908 | 0.909 | 0.874 | 
NCI-H661 | 0.945 | 0.831 | 0.803 | 0.876 | 0.828 | 0.532 | 0.559 | 0.538 | 0.558 | 0.436 | 0.743 | 0.997 | 1.19 | 0.498 | 0.569 | 0.592 | 0.568 | 
NCI-H727 | 0.287 | 0.436 | 0.412 | 0.409 | 0.439 | 0.815 | 0.932 | 0.79 | 0.843 | 0.81 | 1.1 | 0.811 | 0.911 | 0.383 | 0.416 | 0.412 | 0.355 | 0.554
NCI-H838 | 0.305 | 0.258 | 0.273 | 0.234 | 0.223 | 0.456 | 0.5 | 0.483 | 0.457 | 0.417 | 0.973 | 0.943 | 0.756 | 0.495 | 0.546 | 0.548 | 0.375 | 0.767
NCI-H1355 | 0.688 | 0.688 | 0.721 | 0.688 | 0.632 | 0.362 | 0.391 | 0.351 | 0.333 | 0.366 | 1.23 | 1.17 | 1.06 | 0.411 | 0.43 | 0.346 | 0.412 | 
NCI-H1437 | 0.408 | 0.427 | 0.517 | 0.323 | 0.356 | 0.515 | 0.674 | 0.57 | 0.596 | 0.466 | 0.513 | 0.479 | 0.256 | 0.458 | 0.502 | 0.392 | 0.356 | 0.561
NCI-H1650 | 0.236 | 0.29 | 0.28 | 0.323 | 0.242 | 0.456 | 0.535 | 0.496 | 0.384 | 0.367 | 0.195 | 0.193 | 0.205 | 0.791 | 0.583 | 0.525 | 0.43 | 0.184
NCI-H1651 | 0.505 | 0.371 | 0.464 | 0.345 | 0.362 | 0.538 | 0.639 | 0.548 | 0.593 | 0.464 | 0.865 | 0.918 | 0.984 | 0.768 | 0.794 | 0.83 | 0.835 | 0.941
NCI-H1666 | 0.81 | 0.756 | 0.778 | 0.739 | 0.753 | 0.662 | 0.851 | 0.742 | 0.664 | 0.601 | 0.97 | 0.724 | 0.579 | 0.872 | 0.869 | 0.84 | 0.879 | 0.598
NCI-H1734 | 0.472 | 0.393 | 0.433 | 0.444 | 0.391 | 0.469 | 0.493 | 0.501 | 0.545 | 0.432 | 0.954 | 0.958 | 0.827 | 0.582 | 0.629 | 0.682 | 0.785 | 0.758
NCI-H1755 | 0.406 | 0.371 | 0.366 | 0.317 | 0.317 | 0.736 | 0.723 | 0.722 | 0.749 | 0.731 |  | 0.978 | 0.926 | 0.694 | 0.678 | 0.814 | 0.779 | 0.929
NCI-H1915 | 0.257 | 0.303 | 0.304 | 0.302 | 0.314 | 0.263 | 0.269 | 0.251 | 0.252 | 0.262 | 1.01 | 0.903 | 0.98 | 0.261 | 0.31 | 0.309 | 0.3 | 0.932
NCI-H1975 | 0.347 | 0.335 | 0.318 | 0.345 | 0.343 | 0.384 | 0.4 | 0.41 | 0.403 | 0.426 | 0.357 |  | 0.233 | 0.374 | 0.368 | 0.33 | 0.326 | 0.406
NCI-H1993 | 0.504 | 0.634 | 0.557 | 0.541 | 0.572 | 0.633 | 0.672 | 0.622 | 0.62 | 0.572 | 1 | 1.25 | 1.15 | 0.5 | 0.583 | 0.564 | 0.665 | 0.861
NCI-H2009 | 0.254 | 0.199 | 0.228 | 0.213 | 0.177 | 0.384 | 0.47 | 0.415 | 0.372 | 0.36 | 0.979 | 0.93 | 0.763 | 0.158 | 0.262 | 0.294 | 0.353 | 0.834
NCI-H2023 | 0.481 | 0.481 | 0.592 | 0.537 | 0.407 | 0.242 | 0.247 | 0.197 | 0.222 | 0.196 | 1.09 | 0.88 | 0.839 | 0.51 | 0.637 | 0.558 | 0.536 | 0.822
NCI-H2085 | 0.228 | 0.195 | 0.208 | 0.191 | 0.187 | 0.543 | 0.615 | 0.499 | 0.528 | 0.495 | 1.15 | 0.969 | 0.765 |  | 0.491 | 0.516 | 0.513 | 
NCI-H2087 | 1.02 | 0.75 | 0.646 | 0.9 | 0.993 | 0.279 | 0.31 | 0.284 | 0.259 | 0.254 | 0.54 | 0.806 | 0.456 | 0.211 | 0.188 | 0.173 | 0.233 | 0.895
NCI-H2126 | 0.512 | 0.61 | 0.615 | 0.578 | 0.585 | 0.646 | 0.617 | 0.578 | 0.622 | 0.513 | 1.07 | 1.1 | 1.02 | 0.531 | 0.548 | 0.564 | 0.52 | 0.95
NCI-H2347 | 0.242 | 0.318 | 0.313 | 0.244 | 0.269 | 0.629 | 0.605 | 0.578 | 0.675 | 0.566 | 1.1 | 0.979 | 0.713 | 0.298 | 0.304 | 0.276 | 0.459 | 
NCI-H2405 | 0.235 | 0.206 | 0.22 | 0.205 | 0.179 | 0.798 |  | 0.774 | 0.66 | 0.725 | 0.952 | 0.932 | 0.992 | 0.591 | 0.682 | 0.666 | 0.82 | 0.816
NCI-H3122 | 0.931 | 0.83 | 0.865 | 0.794 | 0.872 | 0.513 | 0.435 | 0.362 | 0.421 | 0.535 | 1.08 | 0.987 | 1.09 | 0.221 | 0.256 | 0.248 | 0.313 | 0.914
PC-3 [JPC-3] | 0.893 | 0.934 | 1.02 | 0.93 | 0.925 | 0.806 | 0.879 | 0.844 | 0.956 | 0.805 | 0.791 | 0.791 | 0.829 | 0.662 | 0.641 | 0.713 | 0.633 | 0.832
PC-14 | 0.246 | 0.22 | 0.3 | 0.272 | 0.221 | 0.222 | 0.242 | 0.24 | 0.225 | 0.195 | 0.844 | 0.872 | 0.692 | 0.733 | 0.789 | 0.666 | 0.417 | 0.812
